Converted amounts (≈) assume the structure as drawn. Where two headings read alike, the source gives them in different places.
What was measured:
BTK [1] = target: T1, BTK (Homo sapiens, UniProt Q06187); settings: Figure 2; ref Kuglstatter et al., 2011; cited from earlier work
T1 construct: purchased Carna Biosciences

BTK [2] = target: T1, BTK; assay: Cell-free kinase enzymology assay (HTRF KinEase); assay type: biochemical
Procedure: FIGURE 4 (A) Enzymatic activities of parent 4 and prodrugs 5a-c for BTK. Kinase enzymology assays were carried out in accordance with the protocols described in the HTRF KinEase assays. (B) Time-dependent plasma stability assay.
The kinase (BTK) was acquired from Carna Biosciences. Kinase acitivity assays were carried out based on Cisbio Bioassays’ HTRF® technology. At room temperature, kinase and substrate were combined with compounds in varied concentrations, followed by adding ATP to activate the enzymatic reactions. EDTA solution was added to stop the reactions after 1 h, followed by the addition of streptavidin XL665 conjugates and anti-phosphotyrosine antibodies. The mixtures were incubated for an additional 1 h at room temperature before reading on a plate reader (EnVision®, Perkin Elmer). GraphPad Prism was used to analyze the data.

[3] = Thermodynamic solubility determination assay; assay type: physicochemical; settings: Britton-Robinson buffer (pH 6.5); for solubility thermodynamic: 25 °C, aqueous buffer, thermodynamic from solid, average of two measurements, read-out: S, pH 6.5 (thermodynamic solubility)
Procedure: Prior to mixing with the appropriate medium, the test chemical was accurately weighed into an appropriately sized screw-capped glass vial. The generated slurry was sonicated at room temperature for 20 min and at 50°C for 15 min, and then agitated at room temperature for at least two days before the crystallinity of the remaining solid was examined using a polarized light microscope. If crystallinity was not observed, more time for equilibration was allowed. The slurry was aliquoted into 1.5 mL centrifuge tubes on the day of analysis and centrifuged at 15,000 rpm for 20 min at 25°C. The supernatant’s concentration was determined by UV-vis (YOKE, T-U7S).

[4] = Chemical stability in DMSO or buffer by HPLC; assay type: physicochemical; settings: HPLC analysis of in vitro stability after 24 h at room temperature
[5] = Human plasma stability assay; assay type: in vitro ADME
Procedure: (§1) The in vitro stability in human plasma for the test compounds was investigated using procaine as the reference compound. The frozen human plasma was quickly thawed at 37°C. The spiking solution was made by combining 10 µL of a 10 mM compound stock solution with 990 µL of DMSO. The plasma and spiking solution were pre-warmed at 37°C for 5 min. Then 7 µL of the pre-warmed spiking solution was added into the 693 µL plasma evenly. The tests were carried out in duplicate in a 37°C shaking water bath. At 0, 5, 15, 30, 60, and 120 min, 100 µL samples were collected and added to a 400 µL solution containing an internal standard (IS). After quenching, the samples were vortexed for 5 min (600 rpm) and then centrifuged at 4,000 rpm for 20 min. LC-MS was used to analyze the clear supernatants. The values are the mean of two separate experiments.
as §1, with “at 37 °C.” for “at 37°C.”, “at 37 ℃” for “at 37°C”, “a 37 °C” for “a 37°C”

BTK^C481S = system: BTK^C481S; parameters: method as in Gui et al., 2019; settings: Figure 2; ref Gui et al., 2019; cited from earlier work
[6] = parameters: method as in Li et al., 2014; settings: ref Li et al., 2014; cited from earlier work
[7] = parameters: method as in Li et al., 2014; settings: FaSSIF (Fasted State Simulated Intestinal Fluid, pH 6.5) medium; ref Li et al., 2014; cited from earlier work
[8] = DMSO, read-out: DMSO (% remaining)
[9] = buffer pH 7.4, read-out: Buffer, pH 7.4 (% remaining)

T1 sequence (Q06187 whole entry): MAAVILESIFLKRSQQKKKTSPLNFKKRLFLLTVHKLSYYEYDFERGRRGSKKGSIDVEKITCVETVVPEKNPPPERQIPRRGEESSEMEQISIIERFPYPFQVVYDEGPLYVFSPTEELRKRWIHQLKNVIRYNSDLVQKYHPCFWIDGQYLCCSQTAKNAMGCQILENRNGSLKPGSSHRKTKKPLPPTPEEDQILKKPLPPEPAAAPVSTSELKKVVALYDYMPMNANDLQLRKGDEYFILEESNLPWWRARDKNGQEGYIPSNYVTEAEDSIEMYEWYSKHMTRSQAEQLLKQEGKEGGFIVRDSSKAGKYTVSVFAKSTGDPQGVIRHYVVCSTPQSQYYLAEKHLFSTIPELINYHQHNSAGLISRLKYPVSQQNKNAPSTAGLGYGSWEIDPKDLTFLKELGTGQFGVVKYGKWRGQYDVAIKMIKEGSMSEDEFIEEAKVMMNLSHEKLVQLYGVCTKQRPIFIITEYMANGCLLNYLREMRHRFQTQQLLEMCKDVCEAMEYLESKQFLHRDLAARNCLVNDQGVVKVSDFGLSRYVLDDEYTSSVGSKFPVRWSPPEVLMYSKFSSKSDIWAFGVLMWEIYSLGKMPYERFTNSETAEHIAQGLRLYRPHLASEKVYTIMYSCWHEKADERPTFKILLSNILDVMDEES

| IC50 (BTK [2]) [nM] | solubility thermodynamic [3] [µM] | remaining at 24 h [4, 8] [%] | remaining at 24 h [4, 9] [%] | fold lower inhibitory potential for BTK compared to parent 4 (BTK [2]) [fold] | Structure (SMILES) | also measured |
| --- | --- | --- | --- | --- | --- | --- |
| 92 | 22 (≈ 13.7 µg/mL) | 100 | 98 | 7 | CC(=O)Nc1cc(Nc2ncc(NC(=O)c3cc(NC(=O)c4cccc(C(F)(F)F)c4)ccc3C)cn2)ccc1OC(=O)CN [Compound 5b, 2-Acetamido-4-((5-(2-methyl-5-(3-(trifluoromethyl)benzamido)benzamido)pyrimidin-2-yl)amino)phenyl glycinate] | increase of solubility compared to parent 4 [3]: thrice |
| 135 | 88 (≈ 62 µg/mL) | 100 | 99 | 10 | CC(=O)Nc1cc(Nc2ncc(NC(=O)c3cc(NC(=O)c4cccc(C(F)(F)F)c4)ccc3C)cn2)ccc1OC(=O)CN1CCN(C)CC1 [Compound 5a] | Analyte Peak Area [5]: BLOD; time for conversion to parent 4 in human plasma ([5]; human, 1 µM): less than 2 h |
| 124 | 4.6 (≈ 2.99 µg/mL) | 100 | – | 9 | CC(=O)Nc1cc(Nc2ncc(NC(=O)c3cc(NC(=O)c4cccc(C(F)(F)F)c4)ccc3C)cn2)ccc1OC(=O)CN(C)C [Compound 5c, 2-Acetamido-4-((5-(2-methyl-5-(3-(trifluoromethyl)benzamido)benzamido)pyrimidin-2-yl)amino)phenyl dimethylglycinate] | – |

The remaining lines, values behind:

| Structure (SMILES) | IC50 (BTK [2]) [nM] | solubility thermodynamic [3] [µM] | remaining at 24 h [4, 8] [%] | remaining at 24 h [4, 9] [%] | fold lower inhibitory potential for BTK compared to parent 4 (BTK [2]) [fold] | also measured |
| --- | --- | --- | --- | --- | --- | --- |
| Cc1ccc(NC(=O)/C=C/c2ccccc2)cc1C(=O)Nc1cnc2[nH]c(-c3ccccc3)nc2c1 [Compound 1] | – | – | – | – | – | IC50 (BTK [1]): 5.6 µM |
| CC(=O)Nc1cc(Nc2ncc(NC(=O)c3cc(NC(=O)c4cccc(C(F)(F)F)c4)ccc3C)cn2)ccc1O [Compound 4] | 14 | 6.6 (≈ 3.73 µg/mL) | 100 | 100 | – | – |
| Cc1cc(Nc2ncc3c(n2)N(C)CN(c2cc(NC(=O)c4cccc(C(F)(F)F)c4)ccc2C)C3)n(C)n1 [Compound 3] | – | – | – | – | – | IC50 (BTK^C481S): 11 nM |
| CCN(CC)CCOC(=O)c1ccc(N)cc1 [Procaine, reference compound] | – | – | – | – | – | Analyte Peak Area ([5]; human plasma, 37°C, time 15 min, duplicates): BLOD; Analyte Peak Area ([5]; human plasma, 37°C, time 30 min, duplicates): BLOD; Analyte Peak Area ([5]; human plasma, 37°C, time 60 min, duplicates): BLOD; Analyte Peak Area ([5]; human plasma, 37°C, time 120 min, duplicates): BLOD |
| C=CC(=O)Nc1cccc(Nc2ncc(NC(=O)c3cc(NC(=O)c4cccc(C(F)(F)F)c4)ccc3C)cn2)c1 [Compound 2, reference compound] | – | 2 (≈ 1.12 µg/mL) | 100 | – | – | bioavailability (F%) [6]: 0.9%; solubility in FaSSIF [7]: 7.02 µM (≈ 3.93 µg/mL) |

From article PMC10031131, “Design, synthesis and evaluation of a series of potential prodrugs of a Bruton’s tyrosine kinase (BTK) inhibitor” (Frontiers in Pharmacology, 2023)
